Laboratory results: the supplement of paper PMC11208160

experiment: recombinant UMI read abundance after kanamycin selection (control-corrected) (log10(CPM+1)); higher = more efficient recombination; extreme values may be limits of the assay; sequences stand for … in AGTGCAGAGAAAATCGGCCAGTTTTCTCTGCCTGCAGTCCGCATGCCGTGGGACCCCTTGGGTTCTAACCTGTTGCCTAGATTTATGCAGCGGACTGCCTTTCTCCCAAAGTGATAAACCGG…AGGTTGGTTTCACT; site = the 11-nt donor
Method: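 Pooled E. coli donor-specificity screen for the IS621 bridge recombinase. Each library member carries a reprogrammed 11-nt donor and a full-length LE bridge RNA expressed in cis from the natural promoter, with a paired donor-binding loop (8-nt LDG + 4-nt RDG) and a target-binding loop fixed to T5. It is co-electroporated with a T5 target plasmid; recombinase is induced with 0.07 mM IPTG and recombinants are selected on kanamycin. UMIs are counted as CPM, averaged over two biological replicates and corrected by the unselected control. Molecule = full bridge RNA written as DNA, built from the T5 scaffold: LDG = donor specificity nt 1-8, RDG = reverse complement of nt 8-11.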
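Also: IS621 bridge recombinase in Escherichia coli cells against a fixed T5 target plasmid.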

Sequence	recombinant UMI read abundance (log10)
AAAACTTCATGGACCGGTTTTCCCGGTAATCCGTATTTGTC (site AAAACTTCTGA)	0
AAAAGTCCATGGACCGGTTTTCCCGGTAATCCGTATTTGTA (site AAAAGTCCTTA)	0.66
AAAAGTCCATGGACCGGTTTTCCCGGTAATCCGTATTTGTA (site CAAAGTCCTTA)	0.48
AAAAGTCCATGGACCGGTTTTCCCGGTAATCCGTATTTGTA (site GAAAGTCCTTA)	0.273
AAAAGTCCATGGACCGGTTTTCCCGGTAATCCGTATTTGTA (site TAAAGTCCTTA)	1.12
AAACATCCATGGACCGGTTTTCCCGGTAATCCGTATTTGAC (site AAACATCCTGT)	1.26
AAACATCCATGGACCGGTTTTCCCGGTAATCCGTATTTGAC (site ACACATCCTGT)	0
AAACATCCATGGACCGGTTTTCCCGGTAATCCGTATTTGAC (site AGACATCCTGT)	0
AAACATCCATGGACCGGTTTTCCCGGTAATCCGTATTTGAC (site ATACATCCTGT)	0
AAACGTCCATGGACCGGTTTTCCCGGTAATCCGTATTTGTT (site AAACGTCCTAA)	0.525
AAACTTACATGGACCGGTTTTCCCGGTAATCCGTATTTGCA (site AAACTTACTTG)	1.52
AAACTTGCATGGACCGGTTTTCCCGGTAATCCGTATTTGGC (site AAACTTGCTGC)	0
AAAGAAGCATGGACCGGTTTTCCCGGTAATCCGTATTTGGA (site AAAGAAGCTTC)	1.94
AAAGAGGCATGGACCGGTTTTCCCGGTAATCCGTATTTGCA (site AAAGAGGCTTG)	2.9
AAAGATCCATGGACCGGTTTTCCCGGTAATCCGTATTTGCC (site AAAGATCCTGG)	0
AAAGCAGCATGGACCGGTTTTCCCGGTAATCCGTATTTGCT (site AAAGCAGCTAG)	1.82
AAAGCAGCATGGACCGGTTTTCCCGGTAATCCGTATTTGCT (site CAAGCAGCTAG)	1.5
AAAGCAGCATGGACCGGTTTTCCCGGTAATCCGTATTTGCT (site GAAGCAGCTAG)	0.198
AAAGCAGCATGGACCGGTTTTCCCGGTAATCCGTATTTGCT (site TAAGCAGCTAG)	1.67
AAAGCCACATGGACCGGTTTTCCCGGTAATCCGTATTTGTA (site AAAGCCACTTA)	1.82
AAAGGTACATGGACCGGTTTTCCCGGTAATCCGTATTTGAG (site AAAGGTACTCT)	2.1
AAAGGTTCATGGACCGGTTTTCCCGGTAATCCGTATTTGGG (site AAAGGTTCTCC)	1.05
AAAGTAACATGGACCGGTTTTCCCGGTAATCCGTATTTGCA (site AAAGTAACTTG)	2.88
AAAGTAACATGGACCGGTTTTCCCGGTAATCCGTATTTGCA (site ACAGTATCTTG)	2.56

Sequence	recombinant UMI read abundance (log10)
AAAGTACCATGGACCGGTTTTCCCGGTAATCCGTATTTGCG (site AAAGTACCTCG)	0.0963
AAAGTCTCATGGACCGGTTTTCCCGGTAATCCGTATTTGAT (site AAAGTCTCTAT)	3.17
AAAGTCTCATGGACCGGTTTTCCCGGTAATCCGTATTTGCA (site AAAGTCTCTTG)	3.16
AAAGTCTCATGGACCGGTTTTCCCGGTAATCCGTATTTGCA (site ACAGTATCTTG)	1.99
AAATAACCATGGACCGGTTTTCCCGGTAATCCGTATTTGAA (site AAATAACCTTT)	0
AAATAAGCATGGACCGGTTTTCCCGGTAATCCGTATTTGGG (site AAATAAGCTCC)	0.434
AAATCCGCATGGACCGGTTTTCCCGGTAATCCGTATTTGTC (site AAATCCGCTGA)	2.33
AAATGGGCATGGACCGGTTTTCCCGGTAATCCGTATTTGCT (site AAATGGGCTAG)	2.28
AAATGTTCATGGACCGGTTTTCCCGGTAATCCGTATTTGCC (site AAATGTTCTGG)	2.2
AAATTCCCATGGACCGGTTTTCCCGGTAATCCGTATTTGCT (site AAATTCCCTAG)	1.37
AAATTCCCATGGACCGGTTTTCCCGGTAATCCGTATTTGCT (site CAATTCCCTAG)	0.647
AAATTCCCATGGACCGGTTTTCCCGGTAATCCGTATTTGCT (site GAATTCCCTAG)	0.544
AAATTCCCATGGACCGGTTTTCCCGGTAATCCGTATTTGCT (site TAATTCCCTAG)	1.08
AAATTCCCATGGACCGGTTTTCCCGGTAATCCGTATTTGGT (site AAATTCCCTAC)	0
AACACACCATGGACCGGTTTTCCCGGTAATCCGTATTTGAC (site AACACACCTGT)	0
AACACCTCATGGACCGGTTTTCCCGGTAATCCGTATTTGAT (site AACACCTCTAT)	1.76
AACAGAGCATGGACCGGTTTTCCCGGTAATCCGTATTTGAT (site AACAGAGCTAT)	2.02
AACCAAACATGGACCGGTTTTCCCGGTAATCCGTATTTGTC (site AACCAAACTGA)	0
AACCCACCATGGACCGGTTTTCCCGGTAATCCGTATTTGGA (site AACCCACCTTC)	0.0204
AACCGCCCATGGACCGGTTTTCCCGGTAATCCGTATTTGAT (site AACCGACCTAT)	0.0035
AACCGCCCATGGACCGGTTTTCCCGGTAATCCGTATTTGAT (site AACCGCCCTAT)	0.00906
AACCGCCCATGGACCGGTTTTCCCGGTAATCCGTATTTGAT (site AACCGGCCTAT)	0.00971
AACCGCCCATGGACCGGTTTTCCCGGTAATCCGTATTTGAT (site AACCGTCCTAT)	0.0447
AACCGGCCATGGACCGGTTTTCCCGGTAATCCGTATTTGAT (site AACCGACCTAT)	0

Sequence	recombinant UMI read abundance (log10)
AACCGGCCATGGACCGGTTTTCCCGGTAATCCGTATTTGAT (site AACCGCCCTAT)	0.014
AACCGGCCATGGACCGGTTTTCCCGGTAATCCGTATTTGAT (site AACCGGCCTAT)	0.016
AACCGGCCATGGACCGGTTTTCCCGGTAATCCGTATTTGAT (site AACCGTCCTAT)	0.0213
AACCGGTCATGGACCGGTTTTCCCGGTAATCCGTATTTGGA (site AACCGGTCTTC)	0.422
AACCGTCCATGGACCGGTTTTCCCGGTAATCCGTATTTGAA (site AACCGTCCTAT)	0.0196
AACCGTCCATGGACCGGTTTTCCCGGTAATCCGTATTTGAA (site AACCGTCCTCT)	0.0191
AACCGTCCATGGACCGGTTTTCCCGGTAATCCGTATTTGAA (site AACCGTCCTGT)	0
AACCGTCCATGGACCGGTTTTCCCGGTAATCCGTATTTGAA (site AACCGTCCTTT)	0.0144
AACCGTCCATGGACCGGTTTTCCCGGTAATCCGTATTTGCT (site AACCGTCCTAA)	0.0135
AACCGTCCATGGACCGGTTTTCCCGGTAATCCGTATTTGCT (site AACCGTCCTAC)	0.00247
AACCGTCCATGGACCGGTTTTCCCGGTAATCCGTATTTGCT (site AACCGTCCTAG)	0.593
AACCGTCCATGGACCGGTTTTCCCGGTAATCCGTATTTGCT (site AACCGTCCTAT)	0.0146
AACCGTCCATGGACCGGTTTTCCCGGTAATCCGTATTTGGT (site AACCGTCCTAA)	0.0129
AACCGTCCATGGACCGGTTTTCCCGGTAATCCGTATTTGGT (site AACCGTCCTAC)	0.0164
AACCGTCCATGGACCGGTTTTCCCGGTAATCCGTATTTGGT (site AACCGTCCTAG)	0.00368
AACCGTCCATGGACCGGTTTTCCCGGTAATCCGTATTTGGT (site AACCGTCCTAT)	0.00572
AACCTTCCATGGACCGGTTTTCCCGGTAATCCGTATTTGAA (site AACCTTCCTTT)	0.0147
AACGACGCATGGACCGGTTTTCCCGGTAATCCGTATTTGTA (site AACGACGCTTA)	1.99
AACGAGCCATGGACCGGTTTTCCCGGTAATCCGTATTTGAA (site AACGAGCCTTT)	0.157
AACGCAACATGGACCGGTTTTCCCGGTAATCCGTATTTGTT (site AACGCAACTAA)	0.495
AACGCTGCATGGACCGGTTTTCCCGGTAATCCGTATTTGAA (site AACGCTGCTTT)	1.06
AACGGAACATGGACCGGTTTTCCCGGTAATCCGTATTTGAT (site AACGGAACTAT)	2.33
AACGGTCCATGGACCGGTTTTCCCGGTAATCCGTATTTGGC (site AACGGTCCTGC)	0
AACGTTTCATGGACCGGTTTTCCCGGTAATCCGTATTTGCT (site AACGTTTCTAG)	2.48
